The record followed here is patent US20230212222A1 (ANYGEN CO., LTD., priority 2020, published 2023).

In data set [1] the test system is pERK and pPKA in 3T3-L1 cells. As to the kind of experiment: pERK and pPKA expression by western blot in 3T3-L1 cells. The class given is cell-based. Conditions: FIG. 85. The procedure:
In order to analyze the mechanism of lipolytic ability according to the HKFY derivative treatment in 3T3-L1 cells and WAT cells, the expression levels of pERK and pPKA were analyzed (FIGS. 85 and 86).
Specifically, protein was purified from 3T3L-1 cells (Korea Cell Line Bank) and WAT (tissue culture using mice purchased from Central Lab. Animal Inc.) treated with the HKFY derivatives, and then each antibody for pERK, ERK, pPKA, and PKA expressed in mice was used, and the expression level of each protein due to the derivatives was measured through western blot.
For orientation: Immunoblotting shows a protein as a band on a membrane.

The test system of data set [2] is C57BL6/J mice with high-fat feed (DIO). As to the kind of experiment: insulin level in mouse model of obesity disease (DIO). The class given is in vivo. Particulars: FIG. 90. As to the method: (§1) In addition, the glucose tolerance level and insulin level according to HKFY-34 treatment in a mouse model of obesity disease were analyzed (FIGS. 89 and 90).
(§2) Specifically, in the glucose tolerance level and insulin level analysis experiment, the experiment was performed by changing the mouse model of diabetes mellitus disease into a mouse model of obesity disease (DIO), in which obesity was induced by providing male C57BL6/J mice (6 to 7-week-old, Central Lab. Animal Inc.) with a high-fat feed (60% fat chow) for 5-6 weeks.

Data set [3] concerns the target T1, GPR39 (Homo sapiens, UniProt O43194).
T1 sequence (O43194 1-453): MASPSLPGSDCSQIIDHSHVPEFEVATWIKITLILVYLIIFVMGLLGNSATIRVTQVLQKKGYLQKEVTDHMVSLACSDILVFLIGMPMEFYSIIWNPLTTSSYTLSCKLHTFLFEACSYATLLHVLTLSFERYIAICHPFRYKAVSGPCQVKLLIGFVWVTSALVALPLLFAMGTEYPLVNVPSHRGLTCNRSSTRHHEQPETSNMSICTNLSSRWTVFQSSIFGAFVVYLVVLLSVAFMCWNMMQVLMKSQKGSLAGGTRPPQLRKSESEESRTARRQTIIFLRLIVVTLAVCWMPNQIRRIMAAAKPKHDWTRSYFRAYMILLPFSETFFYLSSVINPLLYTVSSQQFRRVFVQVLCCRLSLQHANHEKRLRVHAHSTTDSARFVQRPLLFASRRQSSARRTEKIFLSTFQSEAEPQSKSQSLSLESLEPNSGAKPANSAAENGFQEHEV
As to the kind of experiment: calcium influx assay system (aequorin) in CV-1 cells. The class given is cell-based. Set-up: host or cells: CV-1 fibroblast cell line, lipofectamine transfection. Conditions: CV-1 cells transfected with human GPR39, Gαq, 6 hours.

Data set [4] relates to INS-1, a rat insulinoma cell. Kind of data set: glucose-dependent insulin secretion ability test in INS-1 (rat insulin ELISA). The class given is cell-based. The procedure:
In this regard, in order to confirm the effect of the HKFY derivative, a candidate GPR39 agonist, on insulin secretion ability, a glucose-dependent insulin secretion ability test was performed in INS-1 (Korea Cell Line Bank), a rat insulinoma cell (FIG. 75).
Specifically, when INS-1 cells were treated with 1 or 10 μM of HKFY-34 in 2.8 mM glucose similar to a physiological blood glucose level or 11.1 mM glucose, a high blood glucose level, the insulin secretion ability was confirmed using a rat insulin ELISA.
In addition, through GPR39 knock-down experiment using GPR39 siRNA, it was confirmed that HKFY-34 enhances insulin secretion through the GPR39 receptor.
In general terms: In an ELISA, binding on a coated surface is turned into a signal by an enzyme label.

Data set [5] has as its system db/db mice. Kind of data set: blood insulin level in mouse model of diabetes mellitus disease (mouse ELISA). The class given is in vivo. As to the method: In addition, the blood insulin level was analyzed simultaneously with the glucose tolerance test for the mouse model of diabetes mellitus disease (FIG. 88).
Specifically, after 0, 15, 30, 60, 90, 120 and 180 minutes, blood was collected from the orbital veins of mice, and the insulin level in plasma was analyzed using mouse ELISA.

Data set [6] has as its target T1, GPR39.
Method: Specifically, the fibroblast cell line CV-1 (1×10^5 cells/ml, Korea Cell Line Bank) was cultured in a 96 well cell culture plate for 24 hours, and then treated with GPR39 inserted into adenovirus and SRE (serum response element) luciferase at 50 MOI (multiplicity of infection) and 25 MOI virus for 3 hours, respectively, and then cultured for 24 hours.
Data set [7] concerns C57BL6/J mice with high-fat feed (DIO). Kind of data set: glucose tolerance test in mouse model of obesity disease (DIO). The class given is in vivo. Conditions: FIG. 89. The procedure:
as §1, §2

Data set [8] deals with 3T3-L1 cells. As to the kind of experiment: lipolytic ability (secreted glycerol) in 3T3-L1 cells. The class given is cell-based. As to the method:
In addition, lipolytic ability according to the HKFY-34 treatment by concentration (100 nM, 500 nM, […] (FIG. 84). When the signal of lipolysis is transmitted, lipid droplet glycerol and free fatty acid in adipocytes are secreted as final products and come out of the cell. At this time, the degree of lipolysis can be confirmed by quantifying the secreted glycerol. Isoproterenol, a positive control group, is an agonist of β-adrenergic receptors and mainly promotes lipolytic ability in adipocytes.

Data set [9] relates to db/db mice. Kind of data set: glucose tolerance test in mouse model of diabetes mellitus disease. The class given is in vivo. Conditions: db/db mice, 0.5, 1, 5 and 10 mg/kg subcutaneously, glucose 1.5 g/kg i.p. after 30 minutes. The procedure: The glucose tolerance level in a mouse model of diabetes mellitus disease according to the HKFY derivative treatment was analyzed (FIG. 87).
Specifically, male db/db mice (5 to 7-week-old, Central Lab. Animal Inc.), which is a mouse model of diabetes mellitus disease, were fasted for 16 hours, and then HKFY-34 was administered subcutaneously at a concentration of 0.5, 1, 5 and 10 mg/kg, respectively. After 30 minutes, glucose (1.5 g/kg) was intraperitoneally administered. After 0, 15, 30, 45, 60, 90, 120 and 180 minutes, blood was collected from the tail of the mice, and the blood glucose was measured with a blood glucose meter (acc-check, Roche, Germany) to analyze the glucose tolerance.

In data set [10] the test system is GPR39 KO mice. As to the kind of experiment: glucose tolerance test in GPR39 KO mouse model induced by a high-fat diet. The class given is in vivo. Particulars: 16, 17 and 18-week-old GPR39 KO mice, high-fat feed, 0.5, 1, 5 and 10 mg/kg subcutaneously. The procedure: In addition, the glucose tolerance level in the GPR39 KO mouse model induced by a high-fat diet according to the HKFY derivative treatment was analyzed (FIG. 91).
Specifically, obesity was induced by providing male GPR39 KO mice (6 to 7-week-old, Central Lab. Animal Inc.) with a high-fat feed (60% fat chow) for 5-6 weeks. HKFY-34 was administered subcutaneously at a concentration of 0.5, 1, 5 and 10 mg/kg, respectively, to the 16, 17 or 18-week-old GPR39 KO mice, in which obesity was induced. After 30 minutes, glucose (1.5 g/kg) was intraperitoneally administered. After 0, 15, 30, 45, 60, 90, 120 and 180 minutes, blood was collected from the tail of the mice, and the blood glucose was measured with a blood glucose meter (acc-check, Roche, Germany) to analyze the glucose tolerance.

On to `CCCCCCCC(=O)NCCCC[C@H](NC(=O)[C@@H](N)Cc1cn(C(c2ccccc2)c2ccccc2)cn1)C(=O)N[C@H](Cc1ccc(C)cc1)C(=O)N[C@@H](Cc1ccc(O)cc1)C(=O)O` [HKFY-34, ((R)-2-((S)-2-((S)-2-amino-3-(1-benzhydryl-1H-imidazol-4-yl)propanamido)-6-octanamidohexanamido)-3-(p-tolyl)propanoyl)-L-tyrosine], for which the “expression of pERK compared to ERK” value in data set [1] was “increased”. In addition, the “expression of pPKA compared to PKA” value in [1] is “increased”. For the same compound, the insulin secretion level result is recorded as “increased” in data set [2]; “significantly increased” in data set [5] (db/db mice, 5 and 10 mg/kg). Besides, the “Ca2+ influx assay ECmax (-fold induction over basal)” value in data set [3] was 2.4 ± 4.59 -fold induction over basal. Moreover, the EC50 – broadly, the concentration at which the effect is half-maximal – in data set [3] (read-out: Ca2+ influx assay EC50) was 2.7 ± 0.5 nM. In addition, the insulin secretion entry in data set [4] (INS-1, high blood glucose level (11.1 mM glucose), 1 or 10 μM) is recorded as “enhanced at all treatment concentrations”. In [4] (INS-1, low blood glucose level (2.8 mM glucose), 1 or 10 μM), the “change in insulin secretion level” value is listed as “insignificant”. Besides, in data set [4] (cells treated with GPR39 siRNA compared to scrambled siRNA, 11.1 mM glucose), the insulin secretion ability result is “not increased”. Also, in [5] (db/db mice, 0.5, 1, 5 and 10 mg/kg subcutaneously), the “insulin secretion (plasma insulin level)” value is on record as “increased in a concentration dependent manner”. In [6], the “ECmax (-fold induction over basal)” value is given as 22.39 ± 4.59 -fold induction over basal. Moreover, in data set [6], the “Reporter gene assay ECmax (-fold induction over basal)” value is on record as 22.39 ± 4.59 -fold induction over basal. For the same compound, the values for the glucose tolerance entry in [7], in data set [9] and in data set [10] were “glucose tolerance in a concentration dependent manner”, “significant glucose tolerance in a concentration dependent manner” and “significant glucose tolerance was not observed”, respectively. The lipolytic ability entry in data set [8] (HKFY-34 concentration 10 μM or higher) is listed as “significantly increased”; in data set [8] (by concentration, FIG. 84) it was “increased in a concentration dependent manner”.
